Experimental data published in paper PMC11056994, “Potentiating Activity of GmhA Inhibitors on Gram-Negative Bacteria” (Journal of Medicinal Chemistry, 2024).
Like-named read-outs stand apart in the source and are kept apart here.

Key:
Format in all cases: cell-based
[1] = system: E. coli C7 (018:K1:H7) LPS biosynthesis; assay: Inhibition of bacterial LPS biosynthesis (silver-stained LPS SDS-PAGE); settings: Escherichia coli; E. coli C7 LPS biosynthesis by SDS-PAGE; mean ± SD of 3 experiments for 17 and 24, n = 1 for others; read-out: EC50
Experimental: The compounds to be tested were prepared in deionized water/DMSO (50/50) solutions and added (25 μL) in sterile culture microtubes. The test bacterial isolate was isolated on tryptic soy agar (TSA) overnight. Isolated colonies were cultured in 10 mL of LB medium at 37 °C up to an OD of typically 0.15. These exponentially growing bacteria were finally diluted to 5 × 10^5 cfu/mL and added in each well (225 μL) for incubation with the compounds at 37 °C for approximately 5 h, up to an OD of ≈0.2–0.4. Some test compounds, e.g., phospho-sugars are actively transported into the bacterial cytosol via the phospho-sugar transporter UhpT (Figure S3). 2.5 μL portion of a 10 mM water solution of glucose-6-phosphate (G6P, 100 μM final concentration, from Sigma) was added in the culture tube in order to induce UhpT expression. LPS extraction: Bacterial cultures were normalized via OD determination, pelleted, and washed with 1 mL of phosphate-buffered-saline (PBS). The pellets were then denatured for 10 min at 95–100 °C in 50 μL of 0.2% sodium dodecyl sulfate (SDS), β-mercaptoethanol 1%, glycerol 36%, Tris 30 mM, pH 7.4, and bromophenol blue 0.001%. Samples were cooled down to room temperature, supplemented with 1.5 μL of proteinase K at 20 mg/mL, incubated for 1 h at 55 °C, and centrifuged for 30 min at 13,000 rpm at 25 °C. The resulting supernatant, containing LPS, was finally analyzed by SDS-PAGE electrophoresis. LPS SDS-PAGE electrophoresis: Polyacrylamide gels (16%/4% acrylamide for separation and concentration, respectively) were prepared, loaded with 8 μL of LPS extracts, and migrated. Silver staining: Gels were incubated overnight in 5% acetic acid/40% ethanol/deionized water, treated by 1% periodic acid/5% acetic acid for 15 min, washed 4 times for 10 min in deionized water, and finally incubated for 18 min in the dark in a silver nitrate solution composed of 56 mL of 0.1 M NaOH (56 mL), 33% aq ammonia (4 mL), 5% AgNO3 (45 mL), and deionized water (195 mL). Gels were then washed extensively in deionized water for 30 min and incubated for 10–15 min (up to LPS band appearance) in the revelation mix composed of 300 mL of deionized water (300 mL), 36.5% formaldehyde (0.3 mL, Fluka), and 2.3 M citric acid (0.1 mL). The revelation was stopped by incubating the gels in 10% acetic acid for 5 min. Gels were finally washed in deionized water, numerized with a Samsung PL51 camera, and analyzed by ImageJ software. The percentage of inhibition of LPS heptosylation was defined as the relative area of the Re-LPS band compared to the cumulated areas of Re-LPS and Core-LPS bands.

[2] = system: E. coli C7; assay: MIC of the compounds alone on E. coli C7; settings: compound alone, n = 2, read-out: MIC E. coli C7
Experimental: Then, we investigated the cytotoxicity and the ability of such inhibitors to potentiate the antimicrobial activity of macrolide and rifamycin antibiotics.
(§1) The compound to be tested was diluted in 50 mM HEPES buffer (pH 7.4) from 10 mM stock solution in DMSO. Five microliters of compound dilution or buffer were distributed in a sterile clear round-bottom 96-well polystyrene microplate (Corning). Five microliters of serial 2-fold dilutions of reference antibiotics [Erythromycin (Fluka), Rifampicin (Fluka)] in DMSO were added. An exponentially growing preculture of E. coli C7 (O18:K1:H7) in LB was diluted to 10^4 cfu/mL and supplemented with 100 μM G6P, and 90 μL of this suspension were added to the microplates. After overnight incubation at 37 °C, the MIC of the antibiotics were determined for each test compound concentration as the lowest antibiotic concentration for which no bacterial pellet is visible without magnification.

[3] = HepG2 cytotoxicity; settings: human, HepG2 cells; n = 2
Experimental: HepG2 cells (LGC Promochem, ref HB-8065) in EMEM medium supplemented with fetal bovine serum (10%), Ampicillin (100 mg/L), and Streptomycin (100 mg/L) were plated on cell culture plates (Costar 3596, 2 × 10^4 cells/well) and incubated overnight at 37 °C in 5% CO2. The culture medium was then aspirated and replaced by supplemented EMEM (210 μL including 2% DMSO) containing dilutions of compounds. Plates were incubated overnight at 37 °C in 5% CO2. Cell viability was determined by the Celltiter Aqueous One Cell Proliferation Assay (G3581–80, Promega) according to the manufacturer’s recommendations, using a Multiskan absorption reader (490 nm).

[4] = system: E. coli C7 (O18:K1:H7); assay: MIC determination of antibiotics combined with a GmhA inhibitor; settings: 17 at 27 mg/L (100 μM), glucose-6-phosphate 100 μM, E. coli C7
Experimental: as §1

[5] = system: E. coli C7 (O18:K1:H7); assay: Time-kill kinetics of rifampicin in combination with compound 17
Experimental: Rifampicin (Fluka) was diluted in DMSO, and the compound to be tested was diluted in water from 50 mM stock solution in 50 mM HEPES buffer, pH 7.4. Ten microliter of DMSO was distributed in sterile 1.5 mL polypropylene microtubes (Eppendorf). 2.5 μL of compound dilution or water, 2.5 μL of Rifampicin or DMSO, 2.5 μL of 10 mM G6P in water (100 μM final concentration), and 230 μL of LB were added to the microtubes. E. coli C7 (O18:K1:H7) was grown in 5 mL of LB broth at 37 °C until mid-log phase. The suspension was then diluted in LB to obtain a 100× inoculum of 5 × 10^7 cfu/mL, 2.5 μL of which were added to each microtube (5 × 10^5 cfu/mL final inoculum). The microtubes were incubated at 37 °C, and aliquots of 10 μL were sampled at 0, 2, 4, 6, 8, and 24 h for bacterial enumeration in duplicate.

[6] = system: E. coli S1 LPS heptosylation; assay: LPS heptosylation inhibition in clinical isolate E. coli S1; settings: Escherichia coli; E. coli S1, ESBL; 100 μM glucose-6-phosphate; n = 1
Experimental: (§2) Compound 17 was also tested against clinical isolates of E. coli,[…], and K. pneumoniae for its ability to block LPS heptosylation (EC50). As detailed in Table 3, 17 in the presence of the UhpT inducer glucose-6-phosphate (100 μM) is a specific inhibitor of LPS heptosylation against various strains, including multiresistant clinical isolates expressing ESBL, AmpC, or NDM-1.
(§3) The compounds to be tested were prepared in deionized water/DMSO (50/50) solutions and added (25 μL) in sterile culture microtubes. The test bacterial isolate was isolated on tryptic soy agar (TSA) overnight. Isolated colonies were cultured in 10 mL of LB medium at 37 °C up to an OD of typically 0.15. These exponentially growing bacteria were finally diluted to 5 × 10^5 cfu/mL and added in each well (225 μL) for incubation with the compounds at 37 °C for approximately 5 h, up to an OD of ≈0.2–0.4. Some test compounds, e.g., phospho-sugars are actively transported into the bacterial cytosol via the phospho-sugar transporter UhpT (Figure S3). […] The resulting supernatant, containing LPS, was finally analyzed by SDS-PAGE electrophoresis. […] Gels were finally washed in deionized water, numerized with a Samsung PL51 camera, and analyzed by ImageJ software. […]

[7] = system: E. cloacae S2 LPS heptosylation; assay: LPS heptosylation inhibition in clinical isolate E. cloacae S2; settings: Enterobacter cloacae; E. cloacae S2, AmpC; 100 μM glucose-6-phosphate; n = 1
Experimental: as §2, §3

[8] = system: K. pneumoniae S3 LPS heptosylation; assay: LPS heptosylation inhibition in clinical isolate K. pneumoniae S3; settings: Klebsiella pneumoniae, read-out: EC50 of LPS heptosylation
Experimental: as §2, §3

Work on `O=CN(O)C[C@H](O)[C@H](O)[C@H](O)COP(=O)(O)O` [Compound 17] yielded an EC50 [1] of 20 ± 3 µM, an MIC ([2]; Escherichia coli, C7) of over 1000 µM and an MIC [2] of over 1000 µM. The CC50 [3] was over 1000 µM, the potentiation of erythromycin [4] was 32 fold and the potentiation of rifampicin [4] was 16 fold. The “effect on bacterial growth, compound alone” value ([5]; 17 300 μM alone or rifampicin 1 mg/L alone) was “did not alter at all the bacterial growth”, the “bacterial counts at 24 h” value ([5]; 17 (300 μM) combined with rifampicin (1 mg/L), 24 h) was “no detectable counts” and the “reduction of the bacterial inoculum” value ([5]; 17 (300 μM) combined with rifampicin (1 mg/L), in less than 6 h) was “more than 3 log”. The EC50 [6] was 21 µM, the EC50 [7] was 18 µM and the EC50 [8] was 21 µM.
